Like-named read-outs stand apart in the source and are kept apart here.
Legend:
MAP4K1 (HPK1) = molecular target: T1, MAP4K1 (HPK1) (Homo sapiens, UniProt Q92918); assay: Inhibition of MAP4K1 biochemical enzymatic activity (EZReader 2 electrophoretic mobility shift); details: HPK1 (Invitrogen), S6K2tide 1.5 μM, 120 min; ATP 26 μM or 1000 μM (not given)
T1 construct: purchased Invitrogen
Outline: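 Untreated enzyme (0.1-15 nM) was incubated with 1.5 μM fluorescent peptide and 20-1000 μM ATP (apparent Km or 1 mM) in HEPES pH 7.5, MgCl2, DTT, Brij 35 at 25° C. for 60-180 min, with 1% DMSO and a 10-point 4-fold compound series. After an EDTA stop, product/substrate peptide peak ratio was read by mobility shift.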

[1] = test system: Primary T Cell (expanded CD3+ T cells); assay: T cell enhancement of cytokines: IL2 measurement (HTRF) in stimulated expanded CD3+ T cells; type: cell-based, human; details: plate-bound anti-CD3 and soluble anti-CD28, 24 h, IL2 by HTRF, read-out: IL-2 Primary T Cell EC50
Protocol: T cells are isolated from whole blood of healthy donors by immunomagnetic negative selection following manufacture's protocol (StemCell Technologies, human T cell isolation kit). Purity of isolated cells is assessed by flow cytometry and yields 95-98% CD3^+ T cells. For expansion of T cells, 1×10^6 cells/well are plated in serum free cell expansion media (ThermoFisher) containing 30 U of recombinant human IL2 (R&D) and stimulated with 25 ul of CD3/CD28 beads (Invitrogen) in 24 well plates for 3-4 days. T cells are then expanded in 175 cm flasks and maintained at a cell density of 1 to 2.5×10^6 cells/ml days by addition of ⅔ of fresh media every 2-3 days. After 10-14 days, cells are frozen in BamBanker freezing media (Thermo) and stored in liquid nitrogen.
For IL2 measurement, expanded CD3^+ T cells are dispensed at 100K cells/well (cultured in X-VIVO 10 Serum-free media) and are stimulated with plate-bound anti-CD3 and soluble anti-CD28 in the presence of vehicle or compound of the disclosure at various concentrations for 24 h. As outlined in the manufacturer's protocol (Cisbio), 16 μL of conditioned media is transferred to a white 384-well low volume plate. Following a 24 h incubation with the anti-IL2 antibodies, the homogenous time resolved fluorescence (HTRF) is measured.

T1 sequence (Q92918 whole entry): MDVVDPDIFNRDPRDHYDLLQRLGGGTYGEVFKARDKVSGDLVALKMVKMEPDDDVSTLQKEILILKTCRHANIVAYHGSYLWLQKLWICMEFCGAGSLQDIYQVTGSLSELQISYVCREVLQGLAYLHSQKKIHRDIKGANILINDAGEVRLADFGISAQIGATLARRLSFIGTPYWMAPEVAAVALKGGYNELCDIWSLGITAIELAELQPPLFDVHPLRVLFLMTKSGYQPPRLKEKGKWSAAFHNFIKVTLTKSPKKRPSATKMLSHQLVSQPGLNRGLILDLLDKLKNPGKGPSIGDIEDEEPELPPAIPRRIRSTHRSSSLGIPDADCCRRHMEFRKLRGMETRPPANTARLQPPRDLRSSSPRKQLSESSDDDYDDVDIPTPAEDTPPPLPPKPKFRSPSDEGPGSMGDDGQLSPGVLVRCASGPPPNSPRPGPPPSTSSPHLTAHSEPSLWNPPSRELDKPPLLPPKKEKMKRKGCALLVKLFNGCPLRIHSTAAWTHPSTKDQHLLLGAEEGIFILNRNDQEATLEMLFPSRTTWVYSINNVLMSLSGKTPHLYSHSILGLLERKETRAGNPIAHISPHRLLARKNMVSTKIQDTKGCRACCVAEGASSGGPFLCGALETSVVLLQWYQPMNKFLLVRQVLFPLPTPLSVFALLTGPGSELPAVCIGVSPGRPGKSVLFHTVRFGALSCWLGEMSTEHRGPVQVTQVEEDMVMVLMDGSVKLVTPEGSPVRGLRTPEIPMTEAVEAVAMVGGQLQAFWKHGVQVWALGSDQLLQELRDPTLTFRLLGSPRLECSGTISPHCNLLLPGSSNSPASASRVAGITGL

| IC50 (MAP4K1 (HPK1)) | EC50 ([1]; Homo sapiens, T-cell, 24 h) | EC50 [1] | SMILES |
| --- | --- | --- | --- |
| 0.2 nM | 26 nM |  | CCC[C@@](C)(N)c1cnc(O[C@H](C)CCS(C)(=O)=O)c2cnc(Nc3ccc4c(n3)[C@@H](C)[C@H](C)OC4=O)cc12 (single isomer, unassigned) [Compound 86] |
| 0.23 nM | 69 nM |  | CC[C@@H](N)c1cnc(O[C@H]2C[C@@H](S(C)(=O)=O)C2)c2cnc(Nc3ccc4c(n3)[C@@H](C)C(C)(C)OC4=O)cc12 (single isomer, unassigned) [Compound 176] |
| 0.18 nM | 85 nM |  | CC[C@@](C)(N)c1cnc(O[C@H](C)C[C@@H](C)[S@](C)(=N)=O)c2cnc(Nc3ccc4c(n3)C3(CC3)[C@@H](C)OC4=O)cc12 (single isomer, unassigned) [Compound 181] |
| 0.19 nM | 10 nM |  | C[C@@H]1OC(=O)c2ccc(Nc3cc4c([C@](C)(N)C5CC5)cnc(O[C@H]5C[C@@H](S(C)(=O)=O)C5)c4cn3)nc2[C@H]1C [Compound 60] |
| 0.16 nM |  | 9 nM | CC[C@@](C)(N)c1cnc(O[C@@H]2C[C@H](S(C)(=O)=O)[C@H]2C)c2cnc(Nc3ccc4c(n3)[C@@H](C)[C@H](C)OC4=O)cc12 (single isomer, unassigned) [Compound 151] |
| 0.23 nM | 39 nM |  | COC[C@@](C)(N)c1cnc(O[C@H](C)C[C@@H](C)S(C)(=O)=O)c2cnc(Nc3ccc4c(n3)[C@@H](C)C(C)(C)OC4=O)cc12 [Compound 144] |
| 0.26 nM | 35 nM |  | C[C@@H]1c2nc(Nc3cc4c(C(C)(C)N)cnc(OCCC[S@](C)(=N)=O)c4cn3)ccc2C(=O)OC1(C)C (single isomer, unassigned) [Compound 168] |
| 0.1 nM | 15 nM |  | C[C@H]1[C@H](Oc2ncc(C(C)(C)N)c3cc(Nc4ccc5c(n4)[C@@H](C)C(C)(C)OC5=O)ncc23)C[C@@H]1S(C)(=O)=O (single isomer, unassigned) [Compound 69] |
| 0.39 nM |  | 72 nM | CCS(=O)(=O)CC[C@@H](C)Oc1ncc(C(C)(C)N)c2cc(Nc3ccc4c(n3)[C@@H](C)C(C)(C)OC4=O)ncc12 (single isomer, unassigned) [Compound 99] |
| 0.07 nM | 25 nM |  | C[C@@H]1c2nc(Nc3cc4c(C(C)(C)N)cnc(O[C@H]5C[C@@H](CS(C)(=O)=O)C5)c4cn3)ccc2C(=O)OC1(C)C (single isomer, unassigned) [Compound 76] |
| 0.33 nM | 59 nM |  | CCC[C@@H](N)c1cnc(O[C@H]2C[C@@H](S(=O)(=O)CC)C2)c2cnc(Nc3ccc4c(n3)[C@@H](C)C(C)(C)OC4=O)cc12 (single isomer, unassigned) [Compound 115] |
| 0.15 nM | 16 nM |  | CC[C@@](C)(N)c1cnc(O[C@H](C)C[C@@H](C)S(=O)(=O)CC)c2cnc(Nc3ccc4c(n3)[C@@H](C)C(C)(C)OC4=O)cc12 [Compound 143] |
| 0.06 nM | 3 nM |  | CC[C@@](C)(N)c1cnc(O[C@H]2C[C@@H](S(=O)(=O)CC)C2)c2cnc(Nc3ccc4c(n3)[C@@H](C)[C@H](C)OC4=O)cc12 [Compound 77] |
| 0.16 nM |  | 21 nM | CC[C@@](C)(N)c1cnc(O[C@H](C)C[C@@H](C)[S@@](C)(=N)=O)c2cnc(Nc3ccc4c(n3)C(C)(C)[C@@H](C)OC4=O)cc12 (single isomer, unassigned) [Compound 182] |
| 0.31 nM | 44 nM |  | CC[C@@](C)(N)c1cnc(O[C@H](C)CCS(C)(=O)=O)c2cnc(Nc3ccc4c(n3)[C@H](C)COC4=O)cc12 (single isomer, unassigned) [Compound 16] |

| SMILES | IC50 (MAP4K1 (HPK1)) | EC50 ([1]; Homo sapiens, T-cell, 24 h) | EC50 [1] |
| --- | --- | --- | --- |
| C[C@@H]1c2nc(Nc3cc4c(C(C)(C)N)cnc(O[C@H]5C[C@@H](S(C)(=O)=O)C5)c4cn3)ccc2C(=O)OC1(C)C [Compound 42, (R)-2-((5-(2-Aminopropan-2-yl)-8-(cis-3-(methylsulfonyl)cyclobutoxy)-2,7-naphthyridin-3-yl)amino)-7,7,8-trimethyl-7,8-dihydro-5H-pyrano[4,3-b]pyridin-5-one] | 0.09 nM | 9 nM |  |
